Values quoted from earlier work, collected in US20060182729A1, “Combat/training antioxidant micronutrient formulation and method of administration” (priority 2005, published 2006).

Legend:
[1] = oral supplementation, human subjects
[2] = system: mutagens in the small intestine; conditions: supplementation

Compound	plasma levels of glutathione [1]	formation of mutagens in the small intestine [2]
N[C@@H](CCC(=O)N[C@@H](CS)C(=O)NCC(=O)O)C(=O)O [glutathione]	failed to significantly increase	
O=C1O[C@H]([C@@H](O)CO)C(O)=C1O [vitamin C, ascorbic acid]		reduces
